Laboratory results from patent US10975399B2, “Use of nitric oxide or nitric oxide donor for inducing the production of triacylglycerols in microalgae” (Commissariat A L'energie Atomique Et Aux Energies …, priority 2016, dated 2021).

Key:
[1] = test system: Phaeodactylum tricornutum; test: Growth of P. tricornutum incubated with the NO donor (cell counting); format: cell-based; settings: 1 mM, 2-day incubation, 500 μL volume, 10×ESAW medium, FIG. 1
Procedure: FIGS. 1 to 4: Effect of increasing concentrations of SNAP on the production of TAG in Phaedocatylum tricornutum. The medium used was 10×ESAW; incubation was performed in 500 μl, inoculated at 1E+06 cells/ml, with immediate addition of chemicals. Measurements were performed after 2 days of incubation. Data of FIGS. 1 and 2 and 3 are the results of 3 biological replicates, FIG. 4 was a time course without replicates. NAP was used as a non-active analogue of SNAP. FIG. 1: Effect of increasing concentrations of SNAP on growth. Growth is measured in cell/mL. Phaeodactylum tricornutum (Ptl) Bohlin Strain 8.6 CCMP2561 (Culture Collection of Marine Phytoplankton, now known as NCMA: National Center for Marine Algae and Microbiota) was used in all experiments. Ptl was grown at 20° C. in 250 mL flask in artificial seawater (ESAW) medium (composition of the medium see table 1) using ten times enriched nitrogen and phosphate sources (5.49·10^−3 M NaNO3 and 2.24·10^−4 NaH3PO4) called “10×ESAW”, or nitrogen-depleted medium. Cells were grown on a 12:12 light (30 μE m^−2sec^−1)/dark cycle. Cells were sub-cultured twice a week by inoculating 1·10^6 cells/ml with fresh media. Growth was evaluated by cell counting using a Malassez counting chamber, or by the absorption at 750 nm using a plate reader. S-Nitroso-N-acetylpenicillamine (SNAP) is a compound that spontaneously releases NO, when dissolved.

[2] = test system: Phaeodactylum tricornutum; test: TAG accumulation by Nile Red staining; format: cell-based; settings: 1 mM, 2-day incubation, 500 μL volume, 10×ESAW medium
Procedure: FIGS. 1 to 4: Effect of increasing concentrations of SNAP on the production of TAG in Phaedocatylum tricornutum. The medium used was 10×ESAW; incubation was performed in 500 μl, inoculated at 1E+06 cells/ml, with immediate addition of chemicals. Measurements were performed after 2 days of incubation. Data of FIGS. 1 and 2 and 3 are the results of 3 biological replicates, FIG. 4 was a time course without replicates. NAP was used as a non-active analogue of SNAP. FIG. 2: Effect of increasing concentrations of SNAP on TAG level per cell. TAG level per cell is given in relative fluorescence units/10^6 cells. FIG. 3: Effect of increasing concentrations of SNAP on TAG productivity. TAG productivity is given in relative fluorescence unit (Rfu) corresponding to the fluorescence of Nile Red per mL and per day. […] Growth was evaluated by cell counting using a Malassez counting chamber, or by the absorption at 750 nm using a plate reader. […] Accumulation of TAG droplets was monitored by Nile Red (Sigma Aldrich) fluorescent staining (Excitation wavelength at 485 nm; emission at 525 nm) following the principles previously described (Abida et al., 2015). In brief, cells were diluted and adjusted to a cell density that was linearly correlated with Nile Red fluorescence. […] Alternatively, Nile red fluorescence values were normalized to the cell concentration.

CC(=O)N[C@H](C(=O)O)C(C)(C)SN=O (racemic) [SNAP, S-Nitroso-N-acetylpenicillamine]
cell growth [1]: reduction of cell growth | increase of productivity (level of TAG per volume of culture and per day) ([2]; Nile Red Rfu per mL and per day, FIG. 3): > 2 fold | increase of TAG per cell ([2]; Nile Red fluorescence per 10^6 cells, FIG. 2): 2.2 fold
